Results taken from patent US20100227853A1, “INHIBITORS OF CYCLIC AMP PHOSPHODIESTERASES” (Trustees of Boston College, priority 2008, published 2010).
“Also recorded” adds a separate entry of the source.

Tests used:
[1] = tested on: PDE4A, PDE4B, PDE4D, PDE7A, PDE7B, PDE8A, PDE3A; assay: Summary of PDE inhibitor profile; set-up: key to PDE inhibitor profile (Table 17): (1): Strong PDE4A, PDE4B inhibitor; (2): Strong PDE4A inhibitor; (3): Strong PDE4B, moderate PDE4A inhibitor; (4): Moderate PDE4A, PDE4B inhibitor; (5): Moderate PDE4B inhibitor; key to inhibitor class, Table 15: (1): Strong PDE4A5 inhibitor; (2): Strong PDE4A, 4B inhibitor; Moderate PDE4D inhibitor; (3): Strong PDE4A. 4B inhibitor; (4): Strong PDE4A, 4B, PDE7A inhibitor: Weak PDE4D inhibitor; key to inhibitor class, Table 16: (1): Weak PDE7A inhibitor; (2): Strong PDE7A inhibitor; (3): Lillte/no activity under conditions used; (4): Weak PDE4A inhibitor; conditions: for PDE inhibitor profile (Table 17): overall classification, Table 17 footnotes
PDE4A5 = target: T1, PDE4A5 (Rattus norvegicus, UniProt P54748); assay: 5FOA growth assay in fission yeast strain expressing PDE4A5; assay type: cell-based; conditions: for Composite Z score, PDE4A5: high throughput 5FOA growth screen
T1 construct: targets used in the assays are full-length proteins (as opposed to simply the catalytic domain); expressed in transfected cells; host or cells: Schizosaccharomyces pombe, PDE gene integrated in place of cgs2
T1 sequence (P54748 1-844): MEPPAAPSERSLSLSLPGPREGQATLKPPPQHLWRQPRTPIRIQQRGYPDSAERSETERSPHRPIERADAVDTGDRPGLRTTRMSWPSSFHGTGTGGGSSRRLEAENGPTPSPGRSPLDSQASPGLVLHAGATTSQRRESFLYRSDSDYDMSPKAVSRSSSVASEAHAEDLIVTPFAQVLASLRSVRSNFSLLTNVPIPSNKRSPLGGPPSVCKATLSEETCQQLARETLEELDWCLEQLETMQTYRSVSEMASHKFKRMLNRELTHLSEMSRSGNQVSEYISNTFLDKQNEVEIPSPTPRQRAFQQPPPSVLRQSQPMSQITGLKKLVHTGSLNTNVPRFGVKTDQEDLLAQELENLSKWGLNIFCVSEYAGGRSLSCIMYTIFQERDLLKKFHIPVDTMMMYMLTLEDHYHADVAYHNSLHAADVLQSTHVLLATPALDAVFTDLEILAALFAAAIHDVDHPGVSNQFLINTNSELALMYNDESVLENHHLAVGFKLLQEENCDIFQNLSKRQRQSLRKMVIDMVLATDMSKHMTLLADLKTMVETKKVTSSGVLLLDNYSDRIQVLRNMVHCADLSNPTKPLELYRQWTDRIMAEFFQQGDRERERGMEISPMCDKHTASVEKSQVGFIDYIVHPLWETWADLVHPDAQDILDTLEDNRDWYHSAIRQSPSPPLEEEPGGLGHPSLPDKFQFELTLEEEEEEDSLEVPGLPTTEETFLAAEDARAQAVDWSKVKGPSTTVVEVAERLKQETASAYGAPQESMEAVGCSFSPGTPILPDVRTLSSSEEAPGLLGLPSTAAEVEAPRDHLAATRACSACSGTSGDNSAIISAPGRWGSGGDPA
Method: High throughput drug screens were carried out at the Broad Institute's Chemical Biology Program screening facility (Broad Institute, Cambridge, Mass.). Depending upon the strain, cultures were pregrown to exponential phase in EMM complete medium containing from 0.5 to 2.5 mM cAMP to repress fbp1-ura4 transcription. Cells were collected by centrifugation, resuspended in 5FOA medium, and 25 μl were transferred to 384-well microtiter dishes (untreated, with flat clear bottoms) that had been pre-filled with 25 μl 5FOA medium and pre-pinned with 100 nl of compounds (stock solutions were generally 10 mM) from a subset of the Prestwick Bioactive and the Microsource Spectrum compound libraries. Starting cell concentrations ranged from 0.5×10^5 to 4×10^5 cells/ml depending on the screening strain. […] Other positive control dishes contained 5 mM cAMP in the 5FOA medium. Cultures were grown for 48 hours at 30° C., sealed in an airtight container with moist paper towels to prevent evaporation. Optical densities (OD600) of cultures were measured using a microplate reader. Bioinformatic analysis of the results to determine composite Z scores was performed as previously described^30, 31.
Cells were pregrown in EMM medium [MP Biomedicals (Solon, Ohio), 3% glucose, filter-sterilized to avoid carmelization, which would introduce variability into the optical density of the medium] containing from 0 mM to 2.5 mM cAMP (or either 0.5 mM or 1.0 mM cGMP). This was to repress expression of the fbp1-ura4 reporter prior to exposure of cells to 5FOA medium. Cells were grown at 30° C. to exponential phase (approximately 10^7 cells/ml). Cells were collected by centrifugation and resuspended in 5FOA medium, and 25 μl were transferred to 384-well microtiter dishes (untreated, with flat clear bottoms) that had been pre-filled with 25 μl 5FOA medium and pre-pinned with 100 nl of compounds (stock solutions were generally 10 mM). Starting cell concentrations ranged from 0.5×10^5 to 4×10^5 cells/ml depending on the screening strain. […] Other positive control dishes contained 5 mM cAMP in the 5FOA medium for PDEs that lack appropriate control compounds. Cultures were grown for 48 hours at 30° C., sealed in an airtight container with moist paper towels to prevent evaporation. Optical densities (OD600) of cultures were measured using a microplate reader. Bioinformatic analysis of the results to determine composite Z scores was performed as previously described (1, 3).

PDE7A = PDE7A (Homo sapiens, UniProt Q13946); assay: 5FOA growth assay in fission yeast strain expressing PDE7A; assay type: cell-based; set-up: targets used in the assays are full-length proteins (as opposed to simply the catalytic domain); expressed in transfected cells; host or cells: Schizosaccharomyces pombe, PDE gene integrated in place of cgs2; conditions: for Composite Z score, PDE7A: high throughput 5FOA growth screen
Outline: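 Fission yeast carrying an fbp1-ura4 reporter were pregrown to exponential phase at 30 °C in EMM with 0–2.5 mM cAMP (or 0.5/1.0 mM cGMP), then moved into 5FOA medium with 100 nl pinned compound (10 mM stocks). Growth was read as OD600 after 48 h at 30 °C and scored as composite Z scores.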

Chain of PDE7A (Q13946 whole entry, the tested form may be a part): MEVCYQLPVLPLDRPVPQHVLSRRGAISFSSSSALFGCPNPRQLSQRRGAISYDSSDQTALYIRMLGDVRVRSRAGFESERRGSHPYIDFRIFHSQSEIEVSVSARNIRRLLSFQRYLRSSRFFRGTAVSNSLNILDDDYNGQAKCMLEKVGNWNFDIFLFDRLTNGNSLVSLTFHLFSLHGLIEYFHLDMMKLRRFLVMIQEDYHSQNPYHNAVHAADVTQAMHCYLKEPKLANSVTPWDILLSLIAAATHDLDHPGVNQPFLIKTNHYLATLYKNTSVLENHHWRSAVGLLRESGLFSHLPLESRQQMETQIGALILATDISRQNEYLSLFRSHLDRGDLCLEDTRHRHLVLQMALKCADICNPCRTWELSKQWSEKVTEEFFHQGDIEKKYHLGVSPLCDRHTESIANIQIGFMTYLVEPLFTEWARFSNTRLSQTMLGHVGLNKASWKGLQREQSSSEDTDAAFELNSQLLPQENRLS

COC(=O)C1=C(C)N(c2ccc(C(C)C)cc2)C(=O)/C1=C\c1ccco1 [2008, 019]
inhibitor class, Table 15 [1]: 2008, 019 (1) | 1 Assay (20 uM) 4A5 (PDE4A5): 1.73 ND ND ND ND | 1 Assay (20 uM) 7A (PDE7A): 2.78 ND ND ND ND

COC(=O)C1/C(=C/c2cccc(OC)c2O)C(=O)N(c2ccccc2F)C1C (stereo not drawn) [2008, C21]
inhibitor class, Table 15 [1]: 2008, C21 (2) | 1 Assay (20 uM) 4A5 (PDE4A5): 1.80 ND ND ND ND | 1 Assay (20 uM) 7A (PDE7A): −0.08 ND ND ND ND

COC(=O)C1=C(C)N(c2ccccc2)/C(=C/c2cccs2)C1=O [2008, K19]
inhibitor class, Table 15 [1]: 2008, K19 (1) | 1 Assay (20 uM) 4A5 (PDE4A5): 0.06 ND ND ND ND | 1 Assay (20 uM) 7A (PDE7A): 2.43 ND ND ND ND

CCCCn1c2ccccc2c2nc3ccccc3nc21 [2013, I20]
PDE inhibitor profile (Table 17) [1]: 2013, I20 (1) | 1 Assay (20 uM) 4A5 (PDE4A5; PDE 4A5): 71.82 ND ND ND ND | 1 Assay (20 uM) 7A (PDE7A; PDE 7A): −0.84 ND ND ND ND

CC(C)Cn1c2ccc(Br)cc2c2nc3ccccc3nc21 [2015, L04]
PDE inhibitor profile (Table 17) [1]: 2015, L04 (1) | 1 Assay (20 uM) 4A5 (PDE4A5; PDE 4A5): 57.60 ND ND ND ND | 1 Assay (20 uM) 7A (PDE7A; PDE 7A): −0.79 ND ND ND ND

CCc1ccc2c(c1)c1nc3ccccc3nc1n2CC [2015, P06]
PDE inhibitor profile (Table 17) [1]: 2015, P06 (4) | 1 Assay (20 uM) 4A5 (PDE4A5; PDE 4A5): 51.82 ND ND ND ND | 1 Assay (20 uM) 7A (PDE7A; PDE 7A): 1.07 ND ND ND ND

C=CCn1c2ccc(Br)cc2c2nc3ccccc3nc21 [2017, C18]
PDE inhibitor profile (Table 17) [1]: 2017, C18 (4) | 1 Assay (20 uM) 4A5 (PDE4A5; PDE 4A5): 69.70 ND ND ND ND | 1 Assay (20 uM) 7A (PDE7A; PDE 7A): −1.58 ND ND ND ND

c1ccc(CCn2c3ccccc3c3nc4ccccc4nc32)cc1 [2019, G03]
PDE inhibitor profile (Table 17) [1]: 2019, G03 (4) | 1 Assay (20 uM) 4A5 (PDE4A5; PDE 4A5): 49.61 ND ND ND ND | 1 Assay (20 uM) 7A (PDE7A; PDE 7A): 4.47 ND ND ND ND

C=Cn1c2ccccc2c2nc3ccccc3nc21 [2033, H06]
PDE inhibitor profile (Table 17) [1]: 2033, H06 (4) | 1 Assay (20 uM) 4A5 (PDE4A5; PDE 4A5): 66.58 ND ND ND ND | 1 Assay (20 uM) 7A (PDE7A; PDE 7A): 0.63 ND ND ND ND

Cc1c(C(=O)Nc2ccc(F)cc2F)sc2ncnc(N3CCC(C)CC3)c12 [BC58]
PDE inhibitor profile, in words [1]: effective PDE4A/4B inhibitor that exhibits limited/essentially no inhibition of PDE4D; also recorded: PDE4A/4B-specific inhibitor | Composite Z score, PDE4A5 (PDE4A5): 154.72 | Composite Z score, PDE7A (PDE7A): 24.881

N#Cc1sc2sc(C#N)c(-c3ccco3)c2c1N [Compound 30]
inhibitor class, Table 16 [1]: 30 KM03472 (2) | 2 Assay (2 uM), 4A5 (PDE4A5; 2 uM): 2.79 | 1 Assay (20 uM) 4A5 (PDE4A5): 2.14

Cc1ccc2c(c1)c1nc3ccccc3nc1n2C(C)C [Compound 41]
PDE inhibitor profile (Table 17) [1]: 41 (1) | 1 Assay (20 uM) 4A5 (PDE4A5; PDE 4A5): 84.08 | 1 Assay (20 uM) 7A (PDE7A; PDE 7A): 0.31

CCN(CC)c1ncnc2sc(C(=O)N(C)C3CCCCC3)c(C)c12 [Compound 2040J12]
Composite Z score, PDE4A5 (PDE4A5): −0.227 | Composite Z score, PDE7A (PDE7A): −0.165

CCN(CC)c1nc(C)nc2sc(C(=O)Nc3cc(Cl)ccc3OC)c(C)c12 [Compound 2040L12]
Composite Z score, PDE4A5 (PDE4A5): 0.9752 | Composite Z score, PDE7A (PDE7A): 0.6002

Cc1nc(N2CCC(C)CC2)c2c(C)c(C(=O)N3CCN(c4ccc(F)cc4)CC3)sc2n1 [Compound 2040N10]
Composite Z score, PDE4A5 (PDE4A5): 1.3723 | Composite Z score, PDE7A (PDE7A): 0.7021

CCN(CC)c1nc(C)nc2sc(C(=O)N3CCCCCC3)c(C)c12 [Compound 2040N12]
Composite Z score, PDE4A5 (PDE4A5): −0.705 | Composite Z score, PDE7A (PDE7A): −1.037

CCOC(=O)c1ccccc1NC(=O)c1sc2nc(C)nc(N(CC)CC)c2c1C [Compound 2040P12]
Composite Z score, PDE4A5 (PDE4A5): 1.3091 | Composite Z score, PDE7A (PDE7A): 1.3653

Cc1c(C(=O)N(C)Cc2ccccc2)sc2ncnc(N3CCN(c4ccccc4)CC3)c12 [Compound 2041G21]
Composite Z score, PDE4A5 (PDE4A5): 0.7964 | Composite Z score, PDE7A (PDE7A): −1.371

COc1ccc(NC(=O)c2sc3nc(C)nc(N(C)c4ccc(C(C)C)cc4)c3c2C)c(OC)c1 [Compound 2041I04]
Composite Z score, PDE4A5 (PDE4A5): 1.1627 | Composite Z score, PDE7A (PDE7A): 0.7201

Cc1c(C(=O)N2CCCCCC2)sc2ncnc(N3CCN(c4ccccc4)CC3)c12 [Compound 2041I21]
Composite Z score, PDE4A5 (PDE4A5): −0.939 | Composite Z score, PDE7A (PDE7A): −0.933

CCC(C)NC(=O)c1sc2nc(C)nc(N(C)c3ccc(C(C)C)cc3)c2c1C (stereo not drawn) [Compound 2041K04]
Composite Z score, PDE4A5 (PDE4A5): 10.539 | Composite Z score, PDE7A (PDE7A): −1.377

COc1cccc(NC(=O)c2sc3ncnc(N4CCc5ccccc5C4)c3c2C)c1 [Compound 2041K21]
Composite Z score, PDE4A5 (PDE4A5): 33.878 | Composite Z score, PDE7A (PDE7A): 0.4852

OCCNc1ncnc2sc3c(c12)CCCC3 [Compound 2051H22]
Composite Z score, PDE4A5 (PDE4A5): 2.0846 | Composite Z score, PDE7A (PDE7A): −0.346

c1nc(NCCCN2CCOCC2)c2c3c(sc2n1)CCCC3 [Compound 2051N22]
Composite Z score, PDE4A5 (PDE4A5): −4.733 | Composite Z score, PDE7A (PDE7A): −0.445

CCNc1nc(SCC(=O)OCC)nc2sc3c(c12)CCC(C)C3 (stereo not drawn) [Compound 2053H16]
Composite Z score, PDE4A5 (PDE4A5): −0.22 | Composite Z score, PDE7A (PDE7A): 0.7038

CCNc1nc(SCC(=O)NC(=O)NCc2ccccc2)nc2sc3c(c12)CCN(C)C3 [Compound 2054N05]
Composite Z score, PDE4A5 (PDE4A5): 1.0728 | Composite Z score, PDE7A (PDE7A): 0.1836

CCNc1nc(SCc2ccc(Cl)cc2)nc2sc3c(c12)CCN(C)C3 [Compound 2054P05]
Composite Z score, PDE4A5 (PDE4A5): 1.0025 | Composite Z score, PDE7A (PDE7A): 1.181
